A short description of the series: Absorbance of Dye A vs cyanine dye Cy7 (diode array spectrophotometer). Type of series: physicochemical. The settings on record: 2.5 μM solution, DMSO diluted in PBS. As for the experimental part: (a) Absorbance and fluorescence of Dye A vs Cyanine Dye Cy7.
0.1 to 0.2 mg vials of the dyes were dissolved initially in 100 μl DMSO and then diluted in PBS to the specified concentrations. Absorbance measurements were performed on 2.5 μM solutions, with a HP 8452A Diode array spectrophotometer. Fluorescence measurements were performed on 250 nM solutions, with a Varian Cary Eclipse Fluorescence Spectrophotometer at standardised instrument settings (600V PMT setting).

For the compound `CCN1C(=CC=CC=CC=CC2=[N+](CCCCCC(=O)O)c3ccc(S(=O)(=O)O)cc3C2(C)C)C(C)(C)c2cc(S(=O)(=O)[O-])ccc21` [Cy7], the “measured absorbance equates to (molar extinction)” value (at 748 nm) is 250,000 /M/cm.

With `CN1C2=C/C(=C/C=C/C3=CC4=[N+](C)c5ccccc5C4(C)C(C)(C)C3)CC(C)(C)C2(C)c2ccccc21` (centres unmarked) [Dye A, 4,4,4a,9-Tetramethyl-2-(3-(1E-4,4,4a,9-tetramethyl-4,4a-dihydro-3H-carbazol-2-ylidenyl)prop-1-enyl)-4,4a-dihydro-3H-carbazolium iodide], under “at 746 nm”, the “measured absorbance equates to (molar extinction)” value is on record as 260,000 /M/cm.

These data come from patent publication US20110280806A1, “DYE CONJUGATE IMAGING AGENTS” (priority 2008, published 2011).
